# Measurements reported in US6737383B1, “Herbicidal oxadiazolidines” (priority 1999, dated 2004).
# Columns and labels:
# [1] = system: blackgrass; experiment: Test B pre/postemergence blackgrass; format: in vivo, Alopecurus myosuroides
# In short: (§1)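 Herbicidal effect was estimated by eye on a ten-point control scale after plants spent twelve to sixteen days in a greenhouse following soil or foliar treatment. Foliar sprays targeted plants at one to four leaves; all doses were formulated in a non-phytotoxic solvent with surfactant.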
# [2] = system: surinam grass; experiment: Test B pre/postemergence surinam grass; format: in vivo, Brachiaria decumbens
# In short: as §1
# [3] = system: cocklebur; experiment: Test B pre/postemergence cocklebur; format: in vivo, Xanthium strumarium
# In short: as §1
# [4] = system: corn; experiment: Test B pre/postemergence corn; format: in vivo, Zea mays
# In short: as §1
# [5] = system: crabgrass; experiment: Test B pre/postemergence crabgrass; format: in vivo, Digitaria sanguinalis
# In short: as §1
# [6] = system: giant foxtail; experiment: Test B pre/postemergence giant foxtail; format: in vivo, Setaria faberii
# In short: as §1
# [7] = system: morningglory; experiment: Test B pre/postemergence morningglory; format: in vivo, Ipomoea hederacea
# In short: as §1
# [8] = system: pigweed; experiment: Test B pre/postemergence pigweed; format: in vivo, Amaranthus retroflexus
# In short: as §1
# [9] = system: rape; experiment: Test B pre/postemergence rape; format: in vivo, Brassica napus
# In short: as §1
# [10] = system: soybean; experiment: Test B pre/postemergence soybean; format: in vivo, Glycine max
# In short: as §1
# [11] = system: sugar beet; experiment: Test B pre/postemergence sugar beet; format: in vivo, Beta vulgaris
# In short: as §1
# [12] = system: velvetleaf; experiment: Test B pre/postemergence velvetleaf; format: in vivo, Abutilon theophrasti
# In short: as §1
# [13] = system: wheat; experiment: Test B pre/postemergence wheat; format: in vivo, Triticum aestivum
# In short: as §1
# [14] = system: wild oat; experiment: Test B pre/postemergence wild oat; format: in vivo, Avena fatua
# In short: as §1
# [15] = system: purple nutsedge; experiment: Test B pre/postemergence purple nutsedge; format: in vivo, Cyperus rotundus
# In short: as §1
# [16] = system: rice; experiment: Test B flood test rice; format: in vivo, Oryza sativa
# In short: (§2)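 Each value is a visual injury score relative to controls, with 10 meaning complete control and 0 no effect. Evaluation took place twelve to sixteen days after the 2-leaf-stage plants were treated and kept in the greenhouse.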
# [17] = system: smallflower flatsedge; experiment: Test B flood test smallflower flatsedge; format: in vivo, Cyperus difformis
# In short: as §2
# [18] = system: duck salad; experiment: Test B flood test duck salad; format: in vivo, Heteranthera limosa
# In short: as §2
# [19] = system: bamyardgrass; experiment: Test B flood test barnyardgrass; format: in vivo, Echinochloa crus-galli
# In short: as §2
# [20] = Postemergence, Rate 31 g/ha, visual rating, scale 0 to 10 (0 no effect, 10 complete control)
# [21] = Postemergence, Rate 62 g/ha, scale 0 to 10, 0 is no effect, 10 is complete control
# [22] = Postemergence, Rate 125 g/ha, scale of 0 to 10 where 0 is no effect and 10 is complete control
# [23] = Postemergence, Rate 250 g/ha, scale of 0 to 10, 0 is no effect, 10 is complete control
# [24] = Preemergence, Rate 31 g/ha, visual rating, scale 0 to 10 (0 no effect, 10 complete control)
# [25] = Preemergence, Rate 62 g/ha, scale of 0 to 10 where 0 is no effect and 10 is complete control
# [26] = Preemergence, Rate 125 g/ha, scale of 0 to 10 where 0 is no effect and 10 is complete control
# [27] = Preemergence, Rate 250 g/ha, scale 0 to 10 (0 no effect, 10 complete control)
# [28] = Rate 31 g/ha, Pre-emergence section (flood test species), scale 0 to 10
# [29] = Rate 62 g/ha, flood test species, Pre-emergence, visual evaluation after twelve to sixteen days
# [30] = Rate 125 g/ha, under heading Pre-emergence, flood test species, visual evaluation after twelve to sixteen days
# [31] = Rate 250 g/ha, Pre-emergence (flood test species), scale 0 to 10, 0 is no effect, 10 is complete control
structure (smiles),measurement,setting,value
CCOP(=O)(OCC)C(C)n1c(=O)on(C(=O)N(c2ccc(Cl)cc2)C(C)C)c1=O (centres unmarked) [Compound 644],Blackgrass plant response rating,[1]; [20],0
same,"Plant response rating, Blackgrass",[1]; [21],0
same,Blackgrass plant response rating,[1]; [22],0
same,Blackgrass plant response rating,[1]; [23],0
same,Blackgrass plant response rating,[1]; [24],0
same,Blackgrass plant response rating,[1]; [25],0
same,Blackgrass plant response rating,[1]; [26],0
same,"Plant response rating, Blackgrass",[1]; [27],0
same,B. signalgrass plant response rating,[2]; [20],0
same,"Plant response rating, B. signalgrass",[2]; [21],0
same,"Plant response rating, B. signalgrass",[2]; [22],0
same,B. signalgrass plant response rating,[2]; [23],0
same,B. signalgrass plant response rating,[2]; [24],0
same,B. signalgrass plant response rating,[2]; [25],0
same,B. signalgrass plant response rating,[2]; [26],0
same,"Plant response rating, B. signalgrass",[2]; [27],2
same,Cocklebur plant response rating,[3]; [20],0
same,"Plant response rating, Cocklebur",[3]; [21],0
same,Cocklebur plant response rating,[3]; [22],0
same,Cocklebur plant response rating,[3]; [23],0
same,Cocklebur plant response rating,[3]; [24],0
same,Cocklebur plant response rating,[3]; [25],0
same,Cocklebur plant response rating,[3]; [26],0
same,"Plant response rating, Cocklebur",[3]; [27],0
same,Corn plant response rating,[4]; [20],0
same,"Plant response rating, Corn",[4]; [21],0
same,Corn plant response rating,[4]; [22],0
same,Corn plant response rating,[4]; [23],0
same,Corn plant response rating,[4]; [24],0
same,Corn plant response rating,[4]; [25],0
same,Corn plant response rating,[4]; [26],0
same,"Plant response rating, Corn",[4]; [27],0
same,Crabgrass plant response rating,[5]; [20],0
same,"Plant response rating, Crabgrass",[5]; [21],0
same,Crabgrass plant response rating,[5]; [22],0
same,Crabgrass plant response rating,[5]; [23],0
same,Crabgrass plant response rating,[5]; [24],2
same,Crabgrass plant response rating,[5]; [25],2
same,"Plant response rating, Crabgrass",[5]; [27],3
same,Giant foxtail plant response rating,[6]; [20],0
same,"Plant response rating, Giant foxtail",[6]; [21],0
same,Giant foxtail plant response rating,[6]; [22],0
same,Giant foxtail plant response rating,[6]; [23],0
same,Giant foxtail plant response rating,[6]; [24],0
same,Giant foxtail plant response rating,[6]; [25],0
same,Giant foxtail plant response rating,[6]; [26],2
same,"Plant response rating, Giant foxtail",[6]; [27],6
same,Morningglory plant response rating,[7]; [20],0
same,"Plant response rating, Morningglory",[7]; [21],0
same,Morningglory plant response rating,[7]; [22],0
same,Morningglory plant response rating,[7]; [23],0
same,Morningglory plant response rating,[7]; [25],0
same,Morningglory plant response rating,[7]; [26],0
same,"Plant response rating, Morningglory",[7]; [27],3
same,Redroot pigweed plant response rating,[8]; [20],2
same,"Plant response rating, Redroot pigweed",[8]; [21],2
same,Redroot pigweed plant response rating,[8]; [22],3
same,Redroot pigweed plant response rating,[8]; [23],3
same,Redroot pigweed plant response rating,[8]; [25],0
same,Redroot pigweed plant response rating,[8]; [26],0
same,"Plant response rating, Redroot pigweed",[8]; [27],0
same,Rape plant response rating,[9]; [20],0
same,"Plant response rating, Rape",[9]; [21],0
same,Rape plant response rating,[9]; [22],0
same,Rape plant response rating,[9]; [23],0
same,Rape plant response rating,[9]; [25],0
same,Rape plant response rating,[9]; [26],0
same,"Plant response rating, Rape",[9]; [27],2
same,Soybean plant response rating,[10]; [20],0
same,"Plant response rating, Soybean",[10]; [21],0
same,Soybean plant response rating,[10]; [22],0
same,Soybean plant response rating,[10]; [25],0
same,Soybean plant response rating,[10]; [26],0
same,"Plant response rating, Soybean",[10]; [27],0
same,Sugarbeets plant response rating,[11]; [20],0
same,"Plant response rating, Sugarbeets",[11]; [21],0
same,Sugarbeets plant response rating,[11]; [22],0
same,Sugarbeets plant response rating,[11]; [23],0
same,Sugarbeets plant response rating,[11]; [25],0
same,Sugarbeets plant response rating,[11]; [26],0
same,"Plant response rating, Sugarbeets",[11]; [27],0
same,Velvetleaf plant response rating,[12]; [20],0
same,"Plant response rating, Velvetleaf",[12]; [21],0
same,Velvetleaf plant response rating,[12]; [22],0
same,Velvetleaf plant response rating,[12]; [23],0
same,Velvetleaf plant response rating,[12]; [25],0
same,Velvetleaf plant response rating,[12]; [26],0
same,"Plant response rating, Velvetleaf",[12]; [27],0
same,Wheat plant response rating,[13]; [20],0
same,"Plant response rating, Wheat",[13]; [21],0
same,Wheat plant response rating,[13]; [22],0
same,Wheat plant response rating,[13]; [23],0
same,Wheat plant response rating,[13]; [25],0
same,Wheat plant response rating,[13]; [26],0
same,"Plant response rating, Wheat",[13]; [27],0
same,Wild oats plant response rating,[14]; [20],0
same,"Plant response rating, Wild oats",[14]; [21],0
same,Wild oats plant response rating,[14]; [22],0
same,Wild oats plant response rating,[14]; [23],0
same,Wild oats plant response rating,[14]; [25],0
same,Wild oats plant response rating,[14]; [26],0
same,"Plant response rating, Wild oats",[14]; [27],0
same,Nutsedge plant response rating,[15]; [20],0
same,Nutsedge plant response rating,[15]; [22],0
same,Nutsedge plant response rating,[15]; [25],0
same,Nutsedge plant response rating,[15]; [26],0
same,Rice plant response rating,[16]; [28],0
same,"Plant response rating, Rice (0 to 10 scale, 0 is no effect, 10 is complete control)",[16]; [29],0
same,"Rice plant response rating (0 to 10 scale, 0 is no effect, 10 is complete control)",[16]; [30],0
same,Rice plant response rating,[16]; [31],0
same,S. Flatsedge plant response rating,[17]; [28],0
same,"Plant response rating, S. Flatsedge (0 to 10 scale, 0 is no effect, 10 is complete control)",[17]; [29],0
same,"S. Flatsedge plant response rating (0 to 10 scale, 0 is no effect, 10 is complete control)",[17]; [30],0
same,S. Flatsedge plant response rating,[17]; [31],0
same,Ducksalad plant response rating,[18]; [28],0
same,"Plant response rating, Ducksalad (0 to 10 scale, 0 is no effect, 10 is complete control)",[18]; [29],0
same,"Ducksalad plant response rating (0 to 10 scale, 0 is no effect, 10 is complete control)",[18]; [30],0
same,Ducksalad plant response rating,[18]; [31],0
same,Barnyardgrass plant response rating,[19]; [28],0
same,"Plant response rating, Barnyardgrass (0 to 10 scale, 0 is no effect, 10 is complete control)",[19]; [29],0
same,"Barnyardgrass plant response rating (0 to 10 scale, 0 is no effect, 10 is complete control)",[19]; [30],0
same,Barnyardgrass plant response rating,[19]; [31],0
